# According to ChEMBL document CHEMBL4152382, “Discovery of Tarantula Venom-Derived NaV1.7-Inhibitory JzTx-V Peptide 5-Br-Trp24 Analogue AM-6120 with Systemic Block of Histamine-Induced Pruritis” (J Med Chem, 2018):
# Target: Sodium channel protein type 9 subunit alpha (Homo sapiens, UniProt Q15858)
# Test: Inhibition of human Nav1.7 expressed in HEK293 cells at holding potential of -125 mV […] by patchxpress-based electrophysiology assay
# Type: cell-based
# Sodium channel protein type 9 subunit alpha, sequence (Q15858 whole entry): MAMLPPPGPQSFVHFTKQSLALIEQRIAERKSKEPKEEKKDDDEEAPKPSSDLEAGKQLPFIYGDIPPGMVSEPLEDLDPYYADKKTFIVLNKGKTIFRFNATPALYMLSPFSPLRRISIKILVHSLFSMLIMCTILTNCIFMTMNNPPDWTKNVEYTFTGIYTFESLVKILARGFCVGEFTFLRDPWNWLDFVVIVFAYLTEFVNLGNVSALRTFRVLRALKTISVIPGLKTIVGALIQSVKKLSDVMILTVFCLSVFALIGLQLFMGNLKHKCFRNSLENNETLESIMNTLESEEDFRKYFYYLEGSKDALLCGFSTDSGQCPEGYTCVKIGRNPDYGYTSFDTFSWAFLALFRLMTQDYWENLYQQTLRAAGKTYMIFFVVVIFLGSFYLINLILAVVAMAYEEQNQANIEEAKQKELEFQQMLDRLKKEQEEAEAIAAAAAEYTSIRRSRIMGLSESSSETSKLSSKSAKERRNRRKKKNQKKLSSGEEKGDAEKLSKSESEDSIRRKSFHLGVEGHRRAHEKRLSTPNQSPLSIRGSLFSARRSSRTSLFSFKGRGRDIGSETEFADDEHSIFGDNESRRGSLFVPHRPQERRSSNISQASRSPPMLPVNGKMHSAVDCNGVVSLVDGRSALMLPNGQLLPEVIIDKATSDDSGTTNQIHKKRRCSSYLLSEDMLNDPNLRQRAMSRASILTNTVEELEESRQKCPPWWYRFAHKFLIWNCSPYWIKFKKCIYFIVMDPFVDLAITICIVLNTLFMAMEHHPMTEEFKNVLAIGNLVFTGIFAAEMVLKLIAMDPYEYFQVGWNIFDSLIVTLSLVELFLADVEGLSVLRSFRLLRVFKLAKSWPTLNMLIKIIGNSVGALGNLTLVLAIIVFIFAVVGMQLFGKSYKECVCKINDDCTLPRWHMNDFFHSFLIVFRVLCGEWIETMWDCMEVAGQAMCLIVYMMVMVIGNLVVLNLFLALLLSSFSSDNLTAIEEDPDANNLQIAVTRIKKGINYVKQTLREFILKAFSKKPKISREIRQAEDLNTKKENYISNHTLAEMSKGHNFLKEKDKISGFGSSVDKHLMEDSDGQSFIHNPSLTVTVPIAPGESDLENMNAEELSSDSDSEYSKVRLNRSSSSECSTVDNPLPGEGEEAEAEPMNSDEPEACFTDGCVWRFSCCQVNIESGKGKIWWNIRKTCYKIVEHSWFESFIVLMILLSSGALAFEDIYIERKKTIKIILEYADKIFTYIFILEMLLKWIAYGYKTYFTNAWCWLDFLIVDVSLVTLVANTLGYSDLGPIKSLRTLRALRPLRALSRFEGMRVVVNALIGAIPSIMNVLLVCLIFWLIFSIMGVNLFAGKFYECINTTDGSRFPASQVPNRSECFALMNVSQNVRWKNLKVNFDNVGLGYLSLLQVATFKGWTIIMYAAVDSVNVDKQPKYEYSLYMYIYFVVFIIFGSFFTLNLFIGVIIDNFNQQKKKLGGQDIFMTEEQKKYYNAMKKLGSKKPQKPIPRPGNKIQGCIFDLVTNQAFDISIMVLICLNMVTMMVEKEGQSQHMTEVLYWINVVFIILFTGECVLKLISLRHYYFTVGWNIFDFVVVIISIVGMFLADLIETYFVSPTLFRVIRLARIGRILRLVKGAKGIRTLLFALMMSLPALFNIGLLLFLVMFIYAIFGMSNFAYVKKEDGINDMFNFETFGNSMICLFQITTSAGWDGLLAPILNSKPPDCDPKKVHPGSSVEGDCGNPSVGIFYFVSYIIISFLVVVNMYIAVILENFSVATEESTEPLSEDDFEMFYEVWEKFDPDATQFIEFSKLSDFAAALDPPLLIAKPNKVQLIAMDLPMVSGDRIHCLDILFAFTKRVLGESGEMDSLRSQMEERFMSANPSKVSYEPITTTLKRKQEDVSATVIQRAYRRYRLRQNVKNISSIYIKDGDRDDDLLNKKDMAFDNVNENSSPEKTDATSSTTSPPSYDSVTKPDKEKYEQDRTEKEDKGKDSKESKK
row,Compound,IC50
1,C#CC[C@H](N)C(=O)N[C@@H](Cc1ccc(O)cc1)C(=O)N[C@H]1CSSC[C@@H]2NC(=O)[C@@H]3CSSC[C@@H](C(=O)N[C@@H](CCCNC(=N)N)C(=O)N[C@@H](CCCCN)C(=O)N[C@@H](CCC(=O)O)C(=O)N[C@H](C(N)=O)[C@@H](C)CC)NC(=O)[C@H](Cc4c[nH]c5ccc(Cl)cc45)NC(=O)[C@H](CC(C)C)NC(=O)[C@H](CCCCN)NC(=O)[C@H](CSSC[C@H](NC(=O)[C@H]([C@@H](C)O)NC(=O)[C@H](Cc4c[nH]c5ccccc45)NC(=O)[C@H](CCCC)NC(=O)[C@H](Cc4c[nH]c5ccccc45)NC(=O)[C@H](CCCCN)NC(=O)[C@H](CCC(N)=O)NC1=O)C(=O)N[C@@H](CC(=O)O)C(=O)N[C@@H](CO)C(=O)N[C@@H](CCCCN)C(=O)N[C@@H](CCCNC(=N)N)C(=O)N[C@@H](C)C(=O)N3)NC(=O)[C@H](CCCNC(=N)N)NC(=O)[C@H](CC(C)C)NC(=O)CNC(=O)[C@H](CCC(=O)O)NC2=O,3.1 nM
2,C#CC[C@H](N)C(=O)N[C@@H](Cc1ccc(O)cc1)C(=O)N[C@H]1CSSC[C@@H]2NC(=O)[C@@H]3CSSC[C@@H](C(=O)N[C@@H](CCCNC(=N)N)C(=O)N[C@@H](CCCCN)C(=O)N[C@@H](CCC(=O)O)C(=O)N[C@H](C(N)=O)[C@@H](C)CC)NC(=O)[C@H](Cc4c[nH]c5ccccc45)NC(=O)[C@H](CC(C)C)NC(=O)[C@H](CCCCN)NC(=O)[C@H](CSSC[C@H](NC(=O)[C@H]([C@@H](C)O)NC(=O)[C@H](Cc4c[nH]c5ccccc45)NC(=O)[C@H](CCCC)NC(=O)[C@H](Cc4c[nH]c5ccc(Br)cc45)NC(=O)[C@H](CCCCN)NC(=O)[C@H](CCC(N)=O)NC1=O)C(=O)N[C@@H](CC(=O)O)C(=O)N[C@@H](CO)C(=O)N[C@@H](CCCCN)C(=O)N[C@@H](CCCNC(=N)N)C(=O)N[C@@H](C)C(=O)N3)NC(=O)[C@H](CCCNC(=N)N)NC(=O)[C@H](CC(C)C)NC(=O)CNC(=O)[C@H](CCC(=O)O)NC2=O,22 nM
3,C#CC[C@H](N)C(=O)N[C@@H](Cc1ccc(O)cc1)C(=O)N[C@H]1CSSC[C@@H]2NC(=O)[C@@H]3CSSC[C@@H](C(=O)N[C@@H](CCCNC(=N)N)C(=O)N[C@@H](CCCCN)C(=O)N[C@@H](CCC(=O)O)C(=O)N[C@H](C(N)=O)[C@@H](C)CC)NC(=O)[C@H](Cc4c[nH]c5ccc(Br)cc45)NC(=O)[C@H](CC(C)C)NC(=O)[C@H](CCCCN)NC(=O)[C@H](CSSC[C@H](NC(=O)[C@H]([C@@H](C)O)NC(=O)[C@H](Cc4c[nH]c5ccccc45)NC(=O)[C@H](CCCC)NC(=O)[C@H](CCc4ccccc4)NC(=O)[C@H](CCCCN)NC(=O)[C@H](CCC(N)=O)NC1=O)C(=O)N[C@@H](CC(=O)O)C(=O)N[C@@H](CO)C(=O)N[C@@H](CCCCN)C(=O)N[C@@H](CCCNC(=N)N)C(=O)N[C@@H](C)C(=O)N3)NC(=O)[C@H](CCCNC(=N)N)NC(=O)[C@H](CC(C)C)NC(=O)CNC(=O)[C@H](CCC(=O)O)NC2=O,1 nM
4,C#CC[C@H](N)C(=O)N[C@@H](Cc1ccc(O)cc1)C(=O)N[C@H]1CSSC[C@@H]2NC(=O)[C@@H]3CSSC[C@@H](C(=O)N[C@@H](CCCNC(=N)N)C(=O)N[C@@H](CCCCN)C(=O)N[C@@H](CCC(=O)O)C(=O)N[C@H](C(N)=O)[C@@H](C)CC)NC(=O)[C@H](CCc4ccccc4)NC(=O)[C@H](CC(C)C)NC(=O)[C@H](CCCCN)NC(=O)[C@H](CSSC[C@H](NC(=O)[C@H]([C@@H](C)O)NC(=O)[C@H](Cc4c[nH]c5ccccc45)NC(=O)[C@H](CCCC)NC(=O)[C@H](Cc4c[nH]c5ccccc45)NC(=O)[C@H](CCCCN)NC(=O)[C@H](CCC(N)=O)NC1=O)C(=O)N[C@@H](CC(=O)O)C(=O)N[C@@H](CO)C(=O)N[C@@H](CCCCN)C(=O)N[C@@H](CCCNC(=N)N)C(=O)N[C@@H](C)C(=O)N3)NC(=O)[C@H](CCCNC(=N)N)NC(=O)[C@H](CC(C)C)NC(=O)CNC(=O)[C@H](CCC(=O)O)NC2=O,> 1000 nM
5,C#CC[C@H](NC(=O)[C@@H](N)CCCCN)C(=O)N[C@H]1CSSC[C@@H]2NC(=O)[C@@H]3CSSC[C@@H](C(=O)N[C@@H](CCCNC(=N)N)C(=O)N[C@@H](CCCCN)C(=O)N[C@@H](CCC(=O)O)C(=O)N[C@H](C(N)=O)[C@@H](C)CC)NC(=O)[C@H](Cc4c[nH]c5ccc(Br)cc45)NC(=O)[C@H](CC(C)C)NC(=O)[C@H](CCCCN)NC(=O)[C@H](CSSC[C@H](NC(=O)[C@H]([C@@H](C)O)NC(=O)[C@H](Cc4c[nH]c5ccccc45)NC(=O)[C@H](CCCC)NC(=O)[C@H](Cc4c[nH]c5ccccc45)NC(=O)[C@H](CCCCN)NC(=O)[C@H](CCC(N)=O)NC1=O)C(=O)N[C@@H](CC(=O)O)C(=O)N[C@@H](CO)C(=O)N[C@@H](CCCCN)C(=O)N[C@@H](CCCNC(=N)N)C(=O)N[C@@H](C)C(=O)N3)NC(=O)[C@H](CCCNC(=N)N)NC(=O)[C@H](CC(C)C)NC(=O)CNC(=O)[C@H](CCC(=O)O)NC2=O,5.7 nM
6,C#CC[C@H](N)C(=O)N[C@@H](Cc1ccc(O)cc1)C(=O)N[C@H]1CSSC[C@@H]2NC(=O)[C@@H]3CSSC[C@@H](C(=O)N[C@@H](CCCNC(=N)N)C(=O)N[C@@H](CCCCN)C(=O)N[C@@H](CCC(=O)O)C(=O)N[C@H](C(N)=O)[C@@H](C)CC)NC(=O)[C@H](Cc4c[nH]c5ccccc45)NC(=O)[C@H](CCCC)NC(=O)[C@H](CCCCN)NC(=O)[C@H](CSSC[C@H](NC(=O)[C@H]([C@@H](C)O)NC(=O)[C@H](Cc4c[nH]c5ccccc45)NC(=O)[C@H](CCCC)NC(=O)[C@H](Cc4c[nH]c5ccccc45)NC(=O)[C@H](CCCCN)NC(=O)[C@H](CCC(N)=O)NC1=O)C(=O)N[C@@H](CC(=O)O)C(=O)N[C@@H](CO)C(=O)N[C@@H](CCCCN)C(=O)N[C@@H](CCCNC(=N)N)C(=O)N[C@@H](C)C(=O)N3)NC(=O)[C@H](CCCNC(=N)N)NC(=O)[C@H](CC(C)C)NC(=O)CNC(=O)[C@H](CCC(=O)O)NC2=O,1.7 nM
7,C#CC[C@H](N)C(=O)N[C@@H](Cc1ccc(O)cc1)C(=O)N[C@H]1CSSC[C@@H]2NC(=O)[C@@H]3CSSC[C@@H](C(=O)N[C@@H](CCCNC(=N)N)C(=O)N[C@@H](CCCCN)C(=O)N[C@@H](CCC(=O)O)C(=O)N[C@H](C(N)=O)[C@@H](C)CC)NC(=O)[C@H](Cc4c[nH]c5ccc(Br)cc45)NC(=O)[C@H](C4CCCCC4)NC(=O)[C@H](CCCCN)NC(=O)[C@H](CSSC[C@H](NC(=O)[C@H]([C@@H](C)O)NC(=O)[C@H](Cc4c[nH]c5ccccc45)NC(=O)[C@H](CCCC)NC(=O)[C@H](Cc4c[nH]c5ccccc45)NC(=O)[C@H](CCCCN)NC(=O)[C@H](CCC(N)=O)NC1=O)C(=O)N[C@@H](CC(=O)O)C(=O)N[C@@H](CO)C(=O)N[C@@H](CCCCN)C(=O)N[C@@H](CCCNC(=N)N)C(=O)N[C@@H](C)C(=O)N3)NC(=O)[C@H](CCCNC(=N)N)NC(=O)[C@H](CC(C)C)NC(=O)CNC(=O)[C@H](CCC(=O)O)NC2=O,19.6 nM
8,C#CC[C@H](N)C(=O)N[C@@H](Cc1ccc(O)cc1)C(=O)N[C@H]1CSSC[C@@H]2NC(=O)[C@@H]3CSSC[C@@H](C(=O)N[C@@H](CCCNC(=N)N)C(=O)N[C@@H](CCCCN)C(=O)N[C@@H](CCC(=O)O)C(=O)N[C@H](C(N)=O)[C@@H](C)CC)NC(=O)[C@H](Cc4c[nH]c5ccccc45)NC(=O)[C@H](C4CCCCC4)NC(=O)[C@H](CCCCN)NC(=O)[C@H](CSSC[C@H](NC(=O)[C@H]([C@@H](C)O)NC(=O)[C@H](Cc4c[nH]c5ccccc45)NC(=O)[C@H](CCCC)NC(=O)[C@H](Cc4c[nH]c5ccccc45)NC(=O)[C@H](CCCCN)NC(=O)[C@H](CCC(N)=O)NC1=O)C(=O)N[C@@H](CC(=O)O)C(=O)N[C@@H](CO)C(=O)N[C@@H](CCCCN)C(=O)N[C@@H](CCCNC(=N)N)C(=O)N[C@@H](C)C(=O)N3)NC(=O)[C@H](CCCNC(=N)N)NC(=O)[C@H](CC(C)C)NC(=O)CNC(=O)[C@H](CCC(=O)O)NC2=O,0.5 nM
9,C#CC[C@H](N)C(=O)N[C@@H](Cc1ccc(O)cc1)C(=O)N[C@H]1CSSC[C@@H]2NC(=O)[C@@H]3CSSC[C@@H](C(=O)N[C@@H](CCCNC(=N)N)C(=O)N[C@@H](CCCCN)C(=O)N[C@@H](CCC(=O)O)C(=O)N[C@H](C(N)=O)[C@@H](C)CC)NC(=O)[C@H](Cc4c[nH]c5cc(C)ccc45)NC(=O)[C@H](CC(C)C)NC(=O)[C@H](CCCCN)NC(=O)[C@H](CSSC[C@H](NC(=O)[C@H]([C@@H](C)O)NC(=O)[C@H](Cc4c[nH]c5ccccc45)NC(=O)[C@H](CCCC)NC(=O)[C@H](Cc4c[nH]c5ccccc45)NC(=O)[C@H](CCCCN)NC(=O)[C@H](CCC(N)=O)NC1=O)C(=O)N[C@@H](CC(=O)O)C(=O)N[C@@H](CO)C(=O)N[C@@H](CCCCN)C(=O)N[C@@H](CCCNC(=N)N)C(=O)N[C@@H](C)C(=O)N3)NC(=O)[C@H](CCCNC(=N)N)NC(=O)[C@H](CC(C)C)NC(=O)CNC(=O)[C@H](CCC(=O)O)NC2=O,19 nM
10,C#CC[C@H](N)C(=O)N[C@@H](Cc1ccc(O)cc1)C(=O)N[C@H]1CSSC[C@@H]2NC(=O)[C@@H]3CSSC[C@@H](C(=O)N[C@@H](CCCNC(=N)N)C(=O)N[C@@H](CCCCN)C(=O)N[C@@H](CCC(=O)O)C(=O)N[C@H](C(N)=O)[C@@H](C)CC)NC(=O)[C@H](Cc4c[nH]c5ccccc45)NC(=O)[C@H](CC(C)C)NC(=O)[C@H](CCCCN)NC(=O)[C@H](CSSC[C@H](NC(=O)[C@H]([C@@H](C)O)NC(=O)[C@H](CCc4ccccc4)NC(=O)[C@H](CCCC)NC(=O)[C@H](Cc4c[nH]c5ccccc45)NC(=O)[C@H](CCCCN)NC(=O)[C@H](CCC(N)=O)NC1=O)C(=O)N[C@@H](CC(=O)O)C(=O)N[C@@H](CO)C(=O)N[C@@H](CCCCN)C(=O)N[C@@H](CCCNC(=N)N)C(=O)N[C@@H](C)C(=O)N3)NC(=O)[C@H](CCCNC(=N)N)NC(=O)[C@H](CC(C)C)NC(=O)CNC(=O)[C@H](CCC(=O)O)NC2=O,6.8 nM
11,C#CC[C@H](N)C(=O)N[C@@H](Cc1ccc(O)cc1)C(=O)N[C@H]1CSSC[C@@H]2NC(=O)[C@@H]3CSSC[C@@H](C(=O)N[C@@H](CCCNC(=N)N)C(=O)N[C@@H](CCCCN)C(=O)N[C@@H](CCC(=O)O)C(=O)N[C@H](C(N)=O)[C@@H](C)CC)NC(=O)[C@H](Cc4c[nH]c5ccccc45)NC(=O)[C@H]([C@@H](C)CC)NC(=O)[C@H](CCCCN)NC(=O)[C@H](CSSC[C@H](NC(=O)[C@H]([C@@H](C)O)NC(=O)[C@H](Cc4c[nH]c5ccccc45)NC(=O)[C@H](CCCC)NC(=O)[C@H](Cc4c[nH]c5ccccc45)NC(=O)[C@H](CCCCN)NC(=O)[C@H](CCC(N)=O)NC1=O)C(=O)N[C@@H](CC(=O)O)C(=O)N[C@@H](CO)C(=O)N[C@@H](CCCCN)C(=O)N[C@@H](CCCNC(=N)N)C(=O)N[C@@H](C)C(=O)N3)NC(=O)[C@H](CCCNC(=N)N)NC(=O)[C@H](CC(C)C)NC(=O)CNC(=O)[C@H](CCC(=O)O)NC2=O,1.1 nM

# Target: Sodium channel protein type 4 subunit alpha (Homo sapiens, UniProt P35499)
# Sequence (P35499 whole entry): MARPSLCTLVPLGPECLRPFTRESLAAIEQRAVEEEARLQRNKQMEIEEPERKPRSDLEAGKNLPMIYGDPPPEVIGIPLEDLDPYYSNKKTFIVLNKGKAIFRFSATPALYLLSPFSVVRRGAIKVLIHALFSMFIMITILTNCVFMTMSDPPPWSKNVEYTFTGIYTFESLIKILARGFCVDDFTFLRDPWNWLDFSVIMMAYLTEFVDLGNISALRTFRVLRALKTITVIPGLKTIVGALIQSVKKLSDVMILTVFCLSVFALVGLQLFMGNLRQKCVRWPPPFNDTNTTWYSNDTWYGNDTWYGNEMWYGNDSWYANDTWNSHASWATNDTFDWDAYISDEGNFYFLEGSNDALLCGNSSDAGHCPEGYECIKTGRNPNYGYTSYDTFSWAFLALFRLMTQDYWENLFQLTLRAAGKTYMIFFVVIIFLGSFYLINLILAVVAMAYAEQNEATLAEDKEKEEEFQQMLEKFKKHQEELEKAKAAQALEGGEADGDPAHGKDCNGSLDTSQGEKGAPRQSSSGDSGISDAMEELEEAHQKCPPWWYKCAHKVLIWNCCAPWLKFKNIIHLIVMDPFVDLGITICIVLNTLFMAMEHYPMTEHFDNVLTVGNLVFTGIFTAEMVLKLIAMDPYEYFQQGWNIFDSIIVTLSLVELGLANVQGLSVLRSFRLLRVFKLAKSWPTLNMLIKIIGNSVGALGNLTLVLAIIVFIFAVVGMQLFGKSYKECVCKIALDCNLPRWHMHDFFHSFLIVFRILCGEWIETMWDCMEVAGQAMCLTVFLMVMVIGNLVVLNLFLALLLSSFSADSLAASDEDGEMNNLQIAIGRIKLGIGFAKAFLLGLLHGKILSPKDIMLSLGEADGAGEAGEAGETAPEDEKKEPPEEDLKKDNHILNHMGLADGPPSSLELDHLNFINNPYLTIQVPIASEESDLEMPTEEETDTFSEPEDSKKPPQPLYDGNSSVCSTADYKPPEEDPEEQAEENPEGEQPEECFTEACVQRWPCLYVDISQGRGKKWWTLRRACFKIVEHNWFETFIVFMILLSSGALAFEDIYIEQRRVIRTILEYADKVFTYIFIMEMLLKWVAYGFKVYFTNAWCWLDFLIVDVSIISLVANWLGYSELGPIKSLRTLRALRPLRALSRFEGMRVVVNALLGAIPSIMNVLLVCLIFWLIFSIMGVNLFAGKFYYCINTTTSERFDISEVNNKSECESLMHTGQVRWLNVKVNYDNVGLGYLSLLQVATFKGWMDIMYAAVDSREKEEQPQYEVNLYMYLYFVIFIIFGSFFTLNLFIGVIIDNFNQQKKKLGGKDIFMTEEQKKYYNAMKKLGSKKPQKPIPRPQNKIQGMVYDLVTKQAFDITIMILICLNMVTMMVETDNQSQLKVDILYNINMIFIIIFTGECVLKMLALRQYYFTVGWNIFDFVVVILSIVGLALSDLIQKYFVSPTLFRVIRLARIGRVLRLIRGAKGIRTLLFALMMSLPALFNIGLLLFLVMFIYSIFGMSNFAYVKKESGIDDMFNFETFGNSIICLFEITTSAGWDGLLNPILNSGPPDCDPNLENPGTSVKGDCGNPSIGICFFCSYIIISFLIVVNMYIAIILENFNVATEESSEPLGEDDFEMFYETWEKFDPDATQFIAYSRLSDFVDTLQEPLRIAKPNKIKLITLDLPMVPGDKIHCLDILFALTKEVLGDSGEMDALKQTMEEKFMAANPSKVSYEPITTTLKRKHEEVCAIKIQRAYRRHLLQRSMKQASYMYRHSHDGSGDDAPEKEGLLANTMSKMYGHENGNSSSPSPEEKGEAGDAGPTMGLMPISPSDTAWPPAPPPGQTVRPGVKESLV
# Test: Inhibition of human Nav1.4 expressed in HEK293 cells at holding potential of -125 mV […] by patchxpress-based electrophysiology assay
# Type: cell-based
row,Compound,IC50
1,C#CC[C@H](N)C(=O)N[C@@H](Cc1ccc(O)cc1)C(=O)N[C@H]1CSSC[C@@H]2NC(=O)[C@@H]3CSSC[C@@H](C(=O)N[C@@H](CCCNC(=N)N)C(=O)N[C@@H](CCCCN)C(=O)N[C@@H](CCC(=O)O)C(=O)N[C@H](C(N)=O)[C@@H](C)CC)NC(=O)[C@H](Cc4c[nH]c5ccc(Cl)cc45)NC(=O)[C@H](CC(C)C)NC(=O)[C@H](CCCCN)NC(=O)[C@H](CSSC[C@H](NC(=O)[C@H]([C@@H](C)O)NC(=O)[C@H](Cc4c[nH]c5ccccc45)NC(=O)[C@H](CCCC)NC(=O)[C@H](Cc4c[nH]c5ccccc45)NC(=O)[C@H](CCCCN)NC(=O)[C@H](CCC(N)=O)NC1=O)C(=O)N[C@@H](CC(=O)O)C(=O)N[C@@H](CO)C(=O)N[C@@H](CCCCN)C(=O)N[C@@H](CCCNC(=N)N)C(=O)N[C@@H](C)C(=O)N3)NC(=O)[C@H](CCCNC(=N)N)NC(=O)[C@H](CC(C)C)NC(=O)CNC(=O)[C@H](CCC(=O)O)NC2=O,23 nM
